Test results as given in PubChem BioAssay AID1745844 (Carcinogenic Potency Database (CPDB), 2022).

System: rodent lifetime carcinogenesis bioassay, tumor incidence TD50
Assay: carcinogenic potency in animals, long-term in vivo studies, CPDB compilation (AID 1745844)
Conditions: inhaled

Q: `C=CC=C` was tested. Which TD50 (mouse, strain B6C3F1, males, site: liver, lesion: hepatocellular adenoma + hepatocellular carcinoma + neoplastic nodule, dosed 60 weeks, study length 60 weeks) did it give?
A: Its TD50 is 541 mg/kg/day.

Q: And the TD50 (mouse, strain B6C3F1, males, site: liver, lesion: hepatocellular adenoma + hepatocellular carcinoma + neoplastic nodule, dosed 82 weeks, study length 104 weeks)?
A: The TD50 was 23.9 mg/kg/day.

Q: And the TD50 (mouse, strain B6C3F1, males, site: liver, lesion: hepatocellular adenoma + hepatocellular carcinoma, dosed 13 weeks, study length 104 weeks)?
A: Its TD50 is 15.1 mg/kg/day.

Q: What about the TD50 (mouse, strain B6C3F1, males, site: liver, lesion: hepatocellular adenoma + hepatocellular carcinoma, dosed 26 weeks, study length 104 weeks) of the same compound?
A: Its TD50 is 23.8 mg/kg/day.

Q: What about the TD50 (mouse, strain B6C3F1, males, site: liver, lesion: hepatocellular adenoma + hepatocellular carcinoma, dosed 40 weeks, study length 104 weeks) of the same compound?
A: Its TD50 is 16.8 mg/kg/day.

Q: What about the TD50 (mouse, strain B6C3F1, males, site: liver, lesion: hepatocellular adenoma + hepatocellular carcinoma, dosed 52 weeks, study length 104 weeks) of the same compound?
A: Its TD50 is 14.6 mg/kg/day.

Q: What about the TD50 (mouse, strain B6C3F1, males, site: liver, lesion: hepatocellular adenoma + hepatocellular carcinoma, dosed 82 weeks, study length 104 weeks) of the same compound?
A: The TD50 was 23.9 mg/kg/day.

Q: And the TD50 (mouse, strain B6C3F1, males, site: liver, lesion: hepatocellular adenoma, dosed 13 weeks, study length 104 weeks)?
A: The TD50 was 17.9 mg/kg/day.

Q: And the TD50 (mouse, strain B6C3F1, males, site: liver, lesion: hepatocellular adenoma, dosed 26 weeks, study length 104 weeks)?
A: Its TD50 is 27.8 mg/kg/day.

Q: What about the TD50 (mouse, strain B6C3F1, males, site: liver, lesion: hepatocellular adenoma, dosed 40 weeks, study length 104 weeks) of the same compound?
A: Its TD50 is 18 mg/kg/day.

Q: What about the TD50 (mouse, strain B6C3F1, males, site: liver, lesion: hepatocellular adenoma, dosed 52 weeks, study length 104 weeks) of the same compound?
A: The TD50 was 15.8 mg/kg/day.

Q: What about the TD50 (mouse, strain B6C3F1, males, site: liver, lesion: hepatocellular adenoma, dosed 82 weeks, study length 104 weeks) of the same compound?
A: The TD50 was 34.1 mg/kg/day.

Q: What about the TD50 (mouse, strain B6C3F1, males, site: liver, lesion: hepatocellular carcinoma, dosed 13 weeks, study length 104 weeks) of the same compound?
A: Its TD50 is 23.4 mg/kg/day.

Q: And the TD50 (mouse, strain B6C3F1, males, site: liver, lesion: hepatocellular carcinoma, dosed 26 weeks, study length 104 weeks)?
A: The TD50 was 60 mg/kg/day.

Q: And the TD50 (mouse, strain B6C3F1, males, site: liver, lesion: hepatocellular carcinoma, dosed 40 weeks, study length 104 weeks)?
A: Its TD50 is 62 mg/kg/day.

Q: And the TD50 (mouse, strain B6C3F1, males, site: liver, lesion: hepatocellular carcinoma, dosed 52 weeks, study length 104 weeks)?
A: Its TD50 is 47 mg/kg/day.

Q: What about the TD50 (mouse, strain B6C3F1, males, site: liver, lesion: hepatocellular carcinoma, dosed 82 weeks, study length 104 weeks) of the same compound?
A: The TD50 was 34.4 mg/kg/day.

Q: What about the TD50 (mouse, strain B6C3F1, males, site: lung, lesion: alveolar/bronchiolar adenoma + alveolar/bronchiolar carcinoma + adenocarcinoma, dosed 13 weeks, study length 104 weeks) of the same compound?
A: The TD50 was 8.59 mg/kg/day.

Q: And the TD50 (mouse, strain B6C3F1, males, site: lung, lesion: alveolar/bronchiolar adenoma + alveolar/bronchiolar carcinoma + adenocarcinoma, dosed 52 weeks, study length 104 weeks)?
A: The TD50 was 7.17 mg/kg/day.

Q: And the TD50 (mouse, strain B6C3F1, males, site: lung, lesion: alveolar/bronchiolar adenoma + alveolar/bronchiolar carcinoma + adenocarcinoma, dosed 82 weeks, study length 104 weeks)?
A: The TD50 was 19.2 mg/kg/day.

Q: What about the TD50 (mouse, strain B6C3F1, males, site: lung, lesion: alveolar/bronchiolar adenoma + alveolar/bronchiolar carcinoma, dosed 13 weeks, study length 104 weeks) of the same compound?
A: The TD50 was 8.59 mg/kg/day.

Q: And the TD50 (mouse, strain B6C3F1, males, site: lung, lesion: alveolar/bronchiolar adenoma + alveolar/bronchiolar carcinoma, dosed 26 weeks, study length 104 weeks)?
A: Its TD50 is 13.4 mg/kg/day.

Q: What about the TD50 (mouse, strain B6C3F1, males, site: lung, lesion: alveolar/bronchiolar adenoma + alveolar/bronchiolar carcinoma, dosed 40 weeks, study length 104 weeks) of the same compound?
A: Its TD50 is 11 mg/kg/day.

Q: What about the TD50 (mouse, strain B6C3F1, males, site: lung, lesion: alveolar/bronchiolar adenoma + alveolar/bronchiolar carcinoma, dosed 52 weeks, study length 104 weeks) of the same compound?
A: The TD50 was 7.25 mg/kg/day.

Q: What about the TD50 (mouse, strain B6C3F1, males, site: lung, lesion: alveolar/bronchiolar adenoma + alveolar/bronchiolar carcinoma, dosed 60 weeks, study length 60 weeks) of the same compound?
A: The TD50 was 65.9 mg/kg/day.

Q: What about the TD50 (mouse, strain B6C3F1, males, site: lung, lesion: alveolar/bronchiolar adenoma + alveolar/bronchiolar carcinoma, dosed 82 weeks, study length 104 weeks) of the same compound?
A: The TD50 was 19.6 mg/kg/day.

Q: What about the TD50 (mouse, strain B6C3F1, males, site: lung, lesion: alveolar/bronchiolar adenoma, dosed 13 weeks, study length 104 weeks) of the same compound?
A: Its TD50 is 17.1 mg/kg/day.

Q: And the TD50 (mouse, strain B6C3F1, males, site: lung, lesion: alveolar/bronchiolar adenoma, dosed 26 weeks, study length 104 weeks)?
A: The TD50 was 17.3 mg/kg/day.

Q: And the TD50 (mouse, strain B6C3F1, males, site: lung, lesion: alveolar/bronchiolar adenoma, dosed 40 weeks, study length 104 weeks)?
A: The TD50 was 18.1 mg/kg/day.

Q: And the TD50 (mouse, strain B6C3F1, males, site: lung, lesion: alveolar/bronchiolar adenoma, dosed 52 weeks, study length 104 weeks)?
A: Its TD50 is 9.13 mg/kg/day.

Q: And the TD50 (mouse, strain B6C3F1, males, site: lung, lesion: alveolar/bronchiolar adenoma, dosed 60 weeks, study length 60 weeks)?
A: Its TD50 is 96.9 mg/kg/day.

Q: What about the TD50 (mouse, strain B6C3F1, males, site: lung, lesion: alveolar/bronchiolar adenoma, dosed 82 weeks, study length 104 weeks) of the same compound?
A: The TD50 was 33.2 mg/kg/day.

Q: What about the TD50 (mouse, strain B6C3F1, males, site: lung, lesion: alveolar/bronchiolar carcinoma + adenocarcinoma, dosed 13 weeks, study length 104 weeks) of the same compound?
A: The TD50 was 14.1 mg/kg/day.

Q: What about the TD50 (mouse, strain B6C3F1, males, site: lung, lesion: alveolar/bronchiolar carcinoma + adenocarcinoma, dosed 52 weeks, study length 104 weeks) of the same compound?
A: The TD50 was 13 mg/kg/day.

Q: What about the TD50 (mouse, strain B6C3F1, males, site: lung, lesion: alveolar/bronchiolar carcinoma + adenocarcinoma, dosed 82 weeks, study length 104 weeks) of the same compound?
A: The TD50 was 32.4 mg/kg/day.

Q: And the TD50 (mouse, strain B6C3F1, males, site: lung, lesion: alveolar/bronchiolar carcinoma, dosed 26 weeks, study length 104 weeks)?
A: Its TD50 is 17.8 mg/kg/day.

Q: What about the TD50 (mouse, strain B6C3F1, males, site: lung, lesion: alveolar/bronchiolar carcinoma, dosed 40 weeks, study length 104 weeks) of the same compound?
A: The TD50 was 16.3 mg/kg/day.

Q: What about the TD50 (mouse, strain B6C3F1, males, site: lung, lesion: alveolar/bronchiolar carcinoma, dosed 60 weeks, study length 60 weeks) of the same compound?
A: Its TD50 is 312 mg/kg/day.

Q: What about the TD50 (mouse, strain B6C3F1, males, site: preputial gland, lesion: adenoma + carcinoma + carcinoma, bilateral, dosed 13 weeks, study length 104 weeks) of the same compound?
A: Its TD50 is 119 mg/kg/day.

Q: What about the TD50 (mouse, strain B6C3F1, males, site: preputial gland, lesion: adenoma + carcinoma + carcinoma, bilateral, dosed 26 weeks, study length 104 weeks) of the same compound?
A: Its TD50 is 27.1 mg/kg/day.

Q: What about the TD50 (mouse, strain B6C3F1, males, site: preputial gland, lesion: adenoma + carcinoma + carcinoma, bilateral, dosed 40 weeks, study length 104 weeks) of the same compound?
A: Its TD50 is 351 mg/kg/day.

Q: And the TD50 (mouse, strain B6C3F1, males, site: preputial gland, lesion: carcinoma + carcinoma, bilateral, dosed 13 weeks, study length 104 weeks)?
A: Its TD50 is 167 mg/kg/day.

Q: What about the TD50 (mouse, strain B6C3F1, males, site: preputial gland, lesion: carcinoma + carcinoma, bilateral, dosed 26 weeks, study length 104 weeks) of the same compound?
A: The TD50 was 27.1 mg/kg/day.

Q: And the TD50 (mouse, strain B6C3F1, males, site: preputial gland, lesion: carcinoma + carcinoma, bilateral, dosed 40 weeks, study length 104 weeks)?
A: The TD50 was 351 mg/kg/day.

Q: And the TD50 (mouse, strain B6C3F1, males, site: preputial gland, lesion: carcinoma + carcinoma, bilateral, dosed 52 weeks, study length 104 weeks)?
A: Its TD50 is 20.1 mg/kg/day.

Q: What about the TD50 (mouse, strain B6C3F1, males, site: preputial gland, lesion: carcinoma, NOS + squamous-cell carcinoma, dosed 60 weeks, study length 60 weeks) of the same compound?
A: The TD50 was 403 mg/kg/day.

Q: What about the TD50 (mouse, strain B6C3F1, males, site: preputial gland, lesion: carcinoma, dosed 82 weeks, study length 104 weeks) of the same compound?
A: Its TD50 is 384 mg/kg/day.

Q: What about the TD50 (mouse, strain B6C3F1, males, site: preputial gland, lesion: squamous-cell carcinoma, dosed 60 weeks, study length 60 weeks) of the same compound?
A: The TD50 was 538 mg/kg/day.

Q: What about the TD50 (mouse, strain B6C3F1, males, site: subcutaneous tissue, lesion: hemangiosarcoma, dosed 82 weeks, study length 104 weeks) of the same compound?
A: Its TD50 is 666 mg/kg/day.

Q: And the TD50 (rat, strain Charles River CD (Sprague-Dawley), females, site: mammary gland, lesion: benign tumor, dosed 105 weeks, study length 105 weeks)?
A: The TD50 was 182 mg/kg/day.

Q: What about the TD50 (rat, strain Charles River CD (Sprague-Dawley), females, site: mammary gland, lesion: malignant tumor, dosed 105 weeks, study length 105 weeks) of the same compound?
A: The TD50 was 7720 mg/kg/day.

Q: And the TD50 (rat, strain Charles River CD (Sprague-Dawley), females, site: mammary gland, lesion: several types, types named in the paper, dosed 105 weeks, study length 105 weeks)?
A: Its TD50 is 133 mg/kg/day.

Q: And the TD50 (rat, strain Charles River CD (Sprague-Dawley), females, site: thyroid gland, lesion: follicular-cell adenoma, dosed 105 weeks, study length 105 weeks)?
A: Its TD50 is 8270 mg/kg/day.

Q: What about the TD50 (rat, strain Charles River CD (Sprague-Dawley), males, site: any site (literature study), lesion: one or several types, types not named, dosed 111 weeks, study length 111 weeks) of the same compound?
A: Its TD50 is 1470 mg/kg/day.

Q: What about the TD50 (rat, strain Charles River CD (Sprague-Dawley), males, site: pancreas, lesion: exocrine adenoma, dosed 111 weeks, study length 111 weeks) of the same compound?
A: Its TD50 is 9310 mg/kg/day.

Q: And the TD50 (rat, strain Charles River CD (Sprague-Dawley), males, site: testis, lesion: Leydig-cell tumor, dosed 111 weeks, study length 111 weeks)?
A: The TD50 was 7550 mg/kg/day.
